Data taken from patent publication US20090209552A1, “Organic Compounds” (Novartis AG, priority 2006, published 2009).

Experiments:
human CRTh2 [1] = molecular target: T1, human CRTh2 (Homo sapiens, UniProt Q9Y5Y4); assay: Filtration binding assay ([3H]-PGD2 competition on CHO.K1-CRTh2 membranes); parameters: expressed in transfected cells; host or cells: CHO.K1 (CHO.K1-CRTh2), membranes; details: [3H]-PGD2 2.5 nM, Cheng-Prussoff
T1 sequence (Q9Y5Y4 1-395): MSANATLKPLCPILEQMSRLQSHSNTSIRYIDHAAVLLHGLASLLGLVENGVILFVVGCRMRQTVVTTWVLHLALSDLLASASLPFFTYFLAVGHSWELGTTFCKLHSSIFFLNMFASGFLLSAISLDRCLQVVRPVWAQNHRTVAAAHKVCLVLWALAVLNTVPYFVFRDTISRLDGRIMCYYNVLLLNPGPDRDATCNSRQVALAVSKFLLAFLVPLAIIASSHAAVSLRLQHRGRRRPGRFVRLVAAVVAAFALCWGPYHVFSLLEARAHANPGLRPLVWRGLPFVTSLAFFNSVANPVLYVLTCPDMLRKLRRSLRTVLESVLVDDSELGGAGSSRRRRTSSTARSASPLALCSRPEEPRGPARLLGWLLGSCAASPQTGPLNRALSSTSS
Description: The binding of CRTh2 modulators is determined using membranes prepared from human CRTh2-expressing Chinese Hamster Ovary cells (CHO.K1-CRTh2). To produce cell membranes CHO.K1-CRTh2 cells cultured in roller bottles are harvested using cell dissociation buffer (Invitrogen). The cells are pelleted by centrifugation (167 g, 5 min). The cell pellet is incubated in hypotonic buffer (15 mM Tris-OH, 2 mM MgCl2, 0.3 mM EDTA, 1 mM EGTA, 1× Complete™ tablet) at 4° C. for 30 minutes. At 4° C. cells are homogenized using a Polytron®) (IKA Ultra Turrax T25) for 5 bursts of 1 second. The homogenate is centrifuged (Beckman Optima TM TL Ultracentrifuge, 48000 g, 30 minutes at 4° C.). The supernatant is discarded and the membrane pellet re-suspended in homogenisation buffer (75 mM Tris-OH, 12.5 mM MgCl2, 0.3 mM EDTA, 1 mM EGTA, 250 mM Sucrose, 1× Complete™ tablet. Membrane preparations are aliquoted and stored at […]. The protein content is estimated using Bradford Protein Assay Dye (Bio Rad).
The binding of [^3H]-PGD2 (157 Ci/mmol) to CHO.K1-CRTh2 membranes is determined in the absence (total binding) and presence (non-specific binding) of unlabelled PGD2 (1 μM). Subtraction of the cpm (counts per minute) of [^3H]-PGD2 binding in presence of excess unlabelled PGD2 from that observed in the absence of excess unlabelled PGD2 is defined as specific binding. Active CRTh2 antagonists are able to compete with [^3H]-PGD2 for binding to the CRTh2 receptor and are identified in a decrease in the number of cpm bound. […]
The plates are incubated at room temperature on a shaker for 1 hour, and then harvested (Tomtec Harvester 9600) onto GF/C filter plates using wash buffer (10 mM HEPES-KOH, pH 7.4). […] Plates are then counted using a Packard Top Count instrument, […]
Ki (dissociation constant for the inhibition) values for the CRTh2 antagonists are reported. Ki values are determined using Sigma Plots software, using the Cheng-Prussoff equation. […]

human CRTh2 [2] = molecular target: T1, human CRTh2; assay: CRTH2 cAMP functional assay in CHO.K1-CRTh2 cells; format: cell-based; parameters: expressed in transfected cells; host or cells: CHO.K1 (CHO.K1-CRTh2), whole cells; details: inhibition of PGD2-mediated attenuation of forskolin-induced cAMP accumulation in CHO.K1-CRTh2 cells
Description: where S is the concentration of radioligand and Kd is the dissociation constant. CRTH2 cAMP Functional Assay Protocol
This assay is conducted in CHO.K1-CRTh2 cells. cAMP is generated in the cell by stimulating cells with 5 μM forskolin, an adenylate cyclase activator. PGD2 is added to activate the CRTh2 receptor which results in the attenuation of the forskolin-induced cAMP accumulation. Potential CRTh2 antagonists are tested for their ability to inhibit the PGD2-mediated attenuation of the forskolin-induced cAMP accumulation in CHO.K1-CRTh2 cells.
For each concentration value on the dose-response curve, test compounds are prepared in assay stimulation buffer (HBSS, 5 mM HEPES, 10 μM IBMX±0.1% human serum albumin) containing DMSO (3% vol/vol) and 5 μL/well is added to an assay plate (384 well white optiplate).
CHO.K1-CRTh2 cultured in tissue culture flasks are washed with PBS and harvested with dissociation buffer. Cells are washed with PBS and re-suspended in stimulation buffer to a concentration of 0.4×10^6/mL and added to the assay plate (10 μL/well).
The assay plate is incubated at room temperature on a shaker for 15 minutes.
A mix of agonist (10 nM Prostaglandin D and 5 μM forskolin is prepared in assay stimulation buffer and added to the assay plate (5 μL/well).
In addition, a cAMP standard is serially diluted in assay stimulation buffer and added to separate empty wells on the assay plate (20 μL/well). The cAMP standard allows for the quantification of cAMP generated in CHO.K1-CRTH2 cells.
The assay plate is incubated at room temperature on a shaker for 60 minutes. […]
The assay plate is sealed with Topseal-S™ and incubated in the dark at room temperature on a shaker for 45 minutes. The plate is then counted using a Packard Fusion™ instrument. […]

N#Cc1cn(CC(=O)O)cc1-c1cc(C(F)(F)F)cc(S(=O)(=O)N2CCN(Cc3ccncc3)CC2)c1 [Example 3, {3-Cyano-4-[3-(4-pyridin-4-ylmethyl-piperazine-1-sulfonyl)-5-trifluoromethyl-phenyl]-pyrrol-1-yl}-acetic acid] was tested, and the Ki (human CRTh2 [1]) was 17 nM and the IC50 (human CRTh2 [2]) was 2 nM.

For Cc1ccc(CNS(=O)(=O)c2cc(-c3cn(CC(=O)O)cc3C#N)cc(C(F)(F)F)c2)o1 [Example 8, (3-Cyano-4-{3-[(5-methyl-furan-2-ylmethyl)-sulfamoyl]-5-trifluoromethyl-phenyl}-pyrrol-1-yl)-acetic acid], the Ki (human CRTh2 [1]) was 2 nM and the IC50 (human CRTh2 [2]) was 5 nM.

For N#Cc1cn(CC(=O)O)cc1-c1cc(Cl)cc(S(=O)(=O)N2CCN(c3ccccc3F)CC2)c1 [Example 9, (3-{3-Chloro-5-[4-(2-fluoro-phenyl)-piperazine-1-sulfonyl]-phenyl}-4-cyano-pyrrol-1-yl)-acetic acid], the Ki (human CRTh2 [1]) was 49 nM and the IC50 (human CRTh2 [2]) was 26 nM.
